Results as given in US20090118375A1, “Optically active phthalamides” (priority 2004, published 2009).

Legend:
Heliothis armigera = Heliothis armigera test; assay type: in vivo; details: Helicoverpa armigera, 168 h, soybean shoots dipped, after 7 d, read-out: Kill rate in % after 7 d
Procedure: (§1) To produce a suitable preparation of active compound, 1 part by weight of active compound is mixed with the stated amounts of solvent and emulsifier, and the concentrate is diluted with emulsifier-containing water to the desired concentration.
Soybean shoots (Glycine max) are treated by being dipped into the preparation of active compound of the desired concentration and are populated with caterpillars of Heliothis armigera while the leaves are still moist.
(§2) After the desired period of time, the kill in % is determined. 100% means that all caterpillars have been killed; 0% means that none of the caterpillars have been killed.

Spodoptera frugiperda = Spodoptera frugiperda test (spray application); assay type: in vivo; details: topical, 168 h, spray on maize leaf slices, after 7 d, read-out: Kill rate in % after 7 d
Procedure: Spodoptera frugiperda Test (Spray Application)
as §1
Maize leave slices (Zea mays) are treated by being sprayed with the preparation of the active compound of the desired concentration and are infested with caterpillars of the fall army worm (Spodoptera frugiperda) after the leaves have dried.
(§3) After the specified period of time, the mortality in % is determined. 100% means that all the […] have been killed; 0% means that none of the […] have been killed.

Phaedon cochleariae = assay: Phaedon test (spray application); assay type: in vivo; details: topical, 168 h, spray on Chinese cabbage leaves, after 7 d, read-out: Kill rate in % after 7 d
Procedure: Phaedon Test (Spray Application) [table] To produce a suitable preparation of active compound, 1 part by weight of active compound is mixed with the stated amounts of solvent and emulsifier, and the concentrate is diluted with emulsifier-containing water to the desired concentration. Chinese cabbage leaves (Brassica pekinensis) are treated by being sprayed with the preparation of the active compound of the desired concentration and are infested with mustard beetle larvae (Phaedon cochleariae) after the leaves have dried.

Myzus persicae = assay: Myzus test (spray application); assay type: in vivo; details: topical, 120 h, spray on Chinese cabbage leaves, after 5 d, read-out: Kill rate in % after 5 d
Procedure: Myzus Test (Spray Application)
as §1
Chinese cabbage leaves (Brassica pekinensis), which are infested by the green peach aphid (Myzus persicae), are treated by being sprayed with the preparation of the active compound of the desired concentration.
as §3

Spodoptera exigua = Spodoptera exigua test; assay type: in vivo; details: 168 h, cabbage leaves dipped, after 7 d, read-out: Kill rate in % after 7 d
Procedure: as §1
Cabbage leaves (Brassica oleracea) are treated by being dipped into the preparation of active compound of the desired concentration and are populated with caterpillars of the army worm (Spodoptera exigua) while the leaves are still moist.
as §2

CSC[C@H](C)NC(=O)c1c(Cl)cccc1C(=O)Nc1ccc(C(C(F)F)C(F)(F)F)cc1C (some centres unmarked) [Compound 40]
pest or weed control at 20 ppm (Heliothis armigera): 100%
melting point: 105 °C

CCSC[C@H](C)NC(=O)c1c(I)cccc1C(=O)Nc1ccc(C(F)(C(F)F)C(F)(F)F)cc1Br (some centres unmarked) [Compound 6]
pest or weed control at 20 g/ha (Spodoptera frugiperda): 100%

C[C@@H](CS(C)(=O)=O)NC(=O)c1c(Cl)cccc1C(=O)Nc1ccc(C(C(F)F)C(F)(F)F)cc1Cl (some centres unmarked) [Compound 48]
pest or weed control at 20 ppm (Heliothis armigera): 100%
melting point: 198 °C

CSC[C@H](C)NC(=O)c1c(I)cccc1C(=O)Nc1ccc(C(C(F)F)C(F)(F)F)cc1Br (some centres unmarked) [Compound 22]
pest or weed control at 20 g/ha (Phaedon cochleariae): 100%

CCS(=O)(=O)C[C@H](C)NC(=O)c1c(Br)cccc1C(=O)Nc1ccc(C(F)(C(F)(F)F)C(F)(F)Br)cc1C (some centres unmarked) [Compound 57]
pest or weed control at 20 g/ha (Phaedon cochleariae): 100%

CSC[C@H](C)NC(=O)c1c(I)cccc1C(=O)Nc1ccc(C(C(F)F)C(F)(F)F)cc1Cl (some centres unmarked) [Compound 14]
pest or weed control at 20 ppm (Heliothis armigera): 100%
pest or weed control at 100 g/ha (Myzus persicae): 100%

CSC[C@H](C)NC(=O)c1c(I)cccc1C(=O)Nc1ccc(C(F)(C(F)F)C(F)(F)F)cc1F (some centres unmarked) [Compound 16]
pest or weed control at 20 g/ha (Spodoptera frugiperda): 100%

Cc1cc(C(F)(C(F)(F)F)C(F)(F)Br)ccc1NC(=O)c1cccc(Cl)c1C(=O)N[C@@H](C)CS(C)(=O)=O (some centres unmarked) [Compound 43]
pest or weed control at 100 g/ha (Myzus persicae): 100%

CCS(=O)(=O)C[C@H](C)NC(=O)c1c(I)cccc1C(=O)Nc1ccc(C(F)(C(F)F)C(F)(F)F)cc1C (some centres unmarked) [Compound 13]
pest or weed control at 20 ppm (Spodoptera exigua): 100%
melting point: 112 °C

CSC[C@H](C)NC(=O)c1c(I)cccc1C(=O)Nc1ccc(C(F)(C(F)F)C(F)(F)F)cc1Cl (some centres unmarked) [Compound 12]
pest or weed control at 20 g/ha (Spodoptera frugiperda): 100%

CC[S+]([O-])C[C@H](C)NC(=O)c1c(I)cccc1C(=O)Nc1ccc(C(C(F)F)C(F)(F)F)cc1C (some centres unmarked) [Compound 61]
pest or weed control at 20 g/ha (Phaedon cochleariae): 100%

CCSC[C@H](C)NC(=O)c1c(Br)cccc1C(=O)Nc1ccc(C(F)(C(F)F)C(F)(F)F)cc1Cl (some centres unmarked) [Compound 53]
pest or weed control at 20 ppm (Heliothis armigera): 100%
melting point: 148 °C

Cc1cc(C(C(F)F)C(F)(F)F)ccc1NC(=O)c1cccc(Cl)c1C(=O)N[C@@H](C)C[S+](C)[O-] (some centres unmarked) [Compound 62]
pest or weed control at 100 g/ha (Myzus persicae): 100%

CSC[C@H](C)NC(=O)c1c(Cl)cccc1C(=O)Nc1ccc(C(F)(C(F)F)C(F)(F)F)cc1C (some centres unmarked) [Compound 39]
pest or weed control at 20 g/ha (Spodoptera frugiperda): 100%

CCSC[C@H](C)NC(=O)c1c(Cl)cccc1C(=O)Nc1ccc(C(F)(C(F)(F)F)C(F)(F)Br)cc1C (some centres unmarked) [Compound 45]
pest or weed control at 20 g/ha (Phaedon cochleariae): 100%

CSC[C@H](C)NC(=O)c1c(I)cccc1C(=O)Nc1ccc(C(F)(C(F)F)C(F)(F)F)cc1C (some centres unmarked) [Compound 10]
pest or weed control at 20 g/ha (Phaedon cochleariae): 100%

Cc1cc(C(F)(C(F)(F)F)C(F)(F)Br)ccc1NC(=O)c1cccc(I)c1C(=O)N[C@@H](C)CS(C)(=O)=O (stereo partly drawn) [Compound 19, N^1-[4-(2-Bromo-1,2,2-trifluoro-1-trifluoromethyl-ethyl)-2-methyl-phenyl]-3-iodo-N^2-[2-methanesulfonyl-(S)-1-methyl-ethyl]-phthalamide]
pest or weed control at 20 ppm (Spodoptera exigua): 100%
melting point: 128 °C

CSC[C@H](C)NC(=O)c1c(I)cccc1C(=O)Nc1ccc(C(F)(C(F)F)C(F)(F)F)cc1Br (some centres unmarked) [Compound 15]
pest or weed control at 20 g/ha (Phaedon cochleariae): 100%

C[C@@H](CS(C)(=O)=O)NC(=O)c1c(Cl)cccc1C(=O)Nc1ccc(C(F)(C(F)F)C(F)(F)F)cc1Cl (some centres unmarked) [Compound 47]
pest or weed control at 20 ppm (Spodoptera exigua): 100%
melting point: 180 °C

CCS(=O)(=O)C[C@H](C)NC(=O)c1c(I)cccc1C(=O)Nc1ccc(C(C(F)F)C(F)(F)F)cc1C (some centres unmarked) [Compound 7]
pest or weed control at 100 g/ha (Myzus persicae): 100%

CSC[C@H](C)NC(=O)c1c(Br)cccc1C(=O)Nc1ccc(C(F)(C(F)(F)F)C(F)(F)Br)cc1C (some centres unmarked) [Compound 63]
pest or weed control at 100 g/ha (Myzus persicae): 90%

Cc1cc(C(F)(C(F)(F)F)C(F)(F)Br)ccc1NC(=O)c1cccc(I)c1C(=O)N[C@@H](C)C[S+](C)[O-] (stereo partly drawn) [Compound 65, N^1-[4-(2-Bromo-1,2,2-trifluoro-1-trifluoromethyl-ethyl)-2-methyl-phenyl]-3-iodo-N^2-[2-methanesulfinyl-(S)-1-methyl-ethyl]-phthalamide]
pest or weed control at 200 g/ha (Spodoptera frugiperda; 200 g/ha): 100%

CCSC[C@H](C)NC(=O)c1c(Cl)cccc1C(=O)Nc1ccc(C(F)(C(F)F)C(F)(F)F)cc1Cl (some centres unmarked) [Compound 50]
pest or weed control at 20 g/ha (Phaedon cochleariae): 100%

C[C@@H](CS(C)(=O)=O)NC(=O)c1c(I)cccc1C(=O)Nc1ccc(C(F)(C(F)F)C(F)(F)F)cc1Br (some centres unmarked) [Compound 30]
pest or weed control at 20 g/ha (Spodoptera frugiperda): 100%

Cc1cc(C(F)(C(F)(F)F)C(F)(F)Br)ccc1NC(=O)c1cccc(Br)c1C(=O)N[C@@H](C)CS(C)(=O)=O (some centres unmarked) [Compound 64]
pest or weed control at 20 g/ha (Spodoptera frugiperda): 90%

CCS(=O)(=O)C[C@H](C)NC(=O)c1c(Cl)cccc1C(=O)Nc1ccc(C(F)(C(F)(F)F)C(F)(F)Br)cc1C (some centres unmarked) [Compound 49]
pest or weed control at 20 g/ha (Spodoptera frugiperda): 100%

CCSC[C@H](C)NC(=O)c1c(Br)cccc1C(=O)Nc1ccc(C(F)(C(F)F)C(F)(F)F)cc1Br (some centres unmarked) [Compound 68]
pest or weed control at 20 ppm (Heliothis armigera): 100%
melting point: 140 to 142 °C

CCS(=O)(=O)C[C@H](C)NC(=O)c1c(Cl)cccc1C(=O)Nc1ccc(C(F)(C(F)F)C(F)(F)F)cc1Cl (some centres unmarked) [Compound 55]
pest or weed control at 20 ppm (Heliothis armigera): 100%
melting point: 175 °C

CSC[C@H](C)NC(=O)c1c(I)cccc1C(=O)Nc1ccc(C(C(F)F)C(F)(F)F)cc1F (some centres unmarked) [Compound 17]
pest or weed control at 100 g/ha (Myzus persicae): 100%

CCS(=O)(=O)C[C@H](C)NC(=O)c1c(I)cccc1C(=O)Nc1ccc(C(C(F)F)C(F)(F)F)cc1Cl (some centres unmarked) [Compound 26]
pest or weed control at 20 g/ha (Spodoptera frugiperda): 100%
pest or weed control at 100 g/ha (Myzus persicae): 100%

Cc1cc(C(C(F)F)C(F)(F)F)ccc1NC(=O)c1cccc(I)c1C(=O)N[C@@H](C)C[S+](C)[O-] (some centres unmarked) [Compound 60]
pest or weed control at 20 g/ha (Phaedon cochleariae): 100%

Cc1cc(C(C(F)F)C(F)(F)F)ccc1NC(=O)c1cccc(I)c1C(=O)N[C@@H](C)CS(C)(=O)=O (some centres unmarked) [Compound 20]
pest or weed control at 20 ppm (Heliothis armigera): 100%
melting point: 123 °C

CCS(=O)(=O)C[C@H](C)NC(=O)c1c(Br)cccc1C(=O)Nc1ccc(C(F)(C(F)F)C(F)(F)F)cc1Cl (some centres unmarked) [Compound 58]
pest or weed control at 20 ppm (Heliothis armigera): 100%
melting point: 118 °C

CCS(=O)(=O)C[C@H](C)NC(=O)c1c(I)cccc1C(=O)Nc1ccc(C(F)(C(F)(F)F)C(F)(F)Br)cc1C (some centres unmarked) [Compound 2]
pest or weed control at 20 g/ha (Phaedon cochleariae): 100%

CSC[C@H](C)NC(=O)c1c(Cl)cccc1C(=O)Nc1ccc(C(F)(C(F)F)C(F)(F)F)cc1Cl (some centres unmarked) [Compound 41]
pest or weed control at 20 g/ha (Phaedon cochleariae): 100%

CCSC[C@H](C)NC(=O)c1c(Cl)cccc1C(=O)Nc1ccc(C(C(F)F)C(F)(F)F)cc1Cl (some centres unmarked) [Compound 51]
pest or weed control at 100 g/ha (Myzus persicae): 100%

CSC[C@H](C)NC(=O)c1c(I)cccc1C(=O)Nc1ccc(C(F)(C(F)(F)F)C(F)(F)Br)cc1C (stereo partly drawn) [Compound 9, N^1-[4-(2-Bromo-1,2,2-trifluoro-1-trifluoromethyl-ethyl)-2-methyl-phenyl]-3-iodo-N^2-[(S)-1-methyl-2-methylsulfanyl-ethyl]-phthalamide]
pest or weed control at 20 ppm (Heliothis armigera): 100%
melting point: 124 °C

CSC[C@H](C)NC(=O)c1c(I)cccc1C(=O)Nc1ccc(C(F)(C(F)F)C(F)(F)F)cc1C#N (some centres unmarked) [Compound 29]
pest or weed control at 20 g/ha (Phaedon cochleariae): 83%

Cc1cc(C(F)(C(F)F)C(F)(F)F)ccc1NC(=O)c1cccc(I)c1C(=O)N[C@@H](C)C[S+](C)[O-] (some centres unmarked) [Compound 66]
pest or weed control at 20 g/ha (Spodoptera frugiperda): 100%
pest or weed control at 100 g/ha (Myzus persicae): 100%
